The values that follow come from ChEMBL document CHEMBL3627601, “Poly(amidoamine) dendrimers show carbonic anhydrase inhibitory activity against α-, β-, γ- and η-class enzymes” (Bioorg Med Chem, 2015).

The structures appear in SMILES notation.

A short description of assay [1]: Inhibition of Candida glabrata beta-carbonic anhydrase preincubated for 15 mins by stopped-flow CO2 hydration assay. Also on record: species or system Nakaseomyces glabratus.
A short description of assay [2]: Inhibition of Cryptococcus neoformans beta-carbonic anhydrase preincubated for 15 mins by stopped-flow CO2 hydration assay.
Assay [3] in a line: Inhibition of Porphyromonas gingivalis beta-carbonic anhydrase preincubated for 15 mins by stopped-flow CO2 hydration assay.
The nature of assay [4]: Inhibition of Porphyromonas gingivalis gamma-carbonic anhydrase preincubated for 15 mins by stopped-flow CO2 hydration assay.
Assay [5] is described as follows: Inhibition of Leishmania donovani chagasi beta-carbonic anhydrase preincubated for 15 mins by stopped-flow CO2 hydration assay.
Assay [6] in a line: Inhibition of Trypanosoma cruzi alpha-carbonic anhydrase preincubated for 15 mins by stopped-flow CO2 hydration assay.
A short description of assay [7]: Inhibition of Plasmodium falciparum eta-carbonic anhydrase preincubated for 15 mins by stopped-flow CO2 hydration assay.
A short description of assay [8]: Inhibition of Vibrio cholerae alpha-carbonic anhydrase preincubated for 15 mins by stopped-flow CO2 hydration assay.

Take `CC(=O)Nc1nnc(S(N)(=O)=O)s1` [ACETAZOLAMIDE]: the inhibition constant (Ki) stood at […] in assay [1], […] in assay [2] and […] in assay [3].

With `NS(=O)(=O)c1ccc(C(=O)NCCNC(=O)CCN(CCC(=O)NCCNC(=O)c2ccc(S(N)(=O)=O)cc2)CCN(CCC(=O)NCCNC(=O)c2ccc(S(N)(=O)=O)cc2)CCC(=O)NCCNC(=O)c2ccc(S(N)(=O)=O)cc2)cc1`, the inhibition constant Ki in assay [1] turned out to be 427 nM; in assay [4] it was 405 nM; in assay [5] it was 75.4 nM; in assay [6], 17.7 nM; in assay [7], 69.7 nM; in assay [2], 24 nM. For the same molecule, the Ki in assay [3] was found to be 84.9 nM; in assay [8], 47.2 nM.

Regarding `NS(=O)(=O)c1ccc(C(=O)NCCNC(=O)CCN(CCNC(=O)CCN(CCC(=O)NCCN(CCC(=O)NCCNC(=O)c2ccc(S(N)(=O)=O)cc2)CCC(=O)NCCNC(=O)c2ccc(S(N)(=O)=O)cc2)CCN(CCC(=O)NCCN(CCC(=O)NCCNC(=O)c2ccc(S(N)(=O)=O)cc2)CCC(=O)NCCNC(=O)c2ccc(S(N)(=O)=O)cc2)CCC(=O)NCCN(CCC(=O)NCCNC(=O)c2ccc(S(N)(=O)=O)cc2)CCC(=O)NCCNC(=O)c2ccc(S(N)(=O)=O)cc2)CCC(=O)NCCNC(=O)c2ccc(S(N)(=O)=O)cc2)cc1`, the inhibition constant Ki in assay [1] turned out to be 342 nM; in assay [4], 563 nM; in assay [5] it was 85.6 nM; in assay [6], 95.4 nM; in assay [7] it was 58.6 nM; in assay [2], 83.6 nM. Further, the inhibition constant (Ki) worked out at 77 nM in assay [3] and 8.1 nM in assay [8].
